{"source": "paper PMC2763043", "about": "(ACS chemical biology, 2009)", "key": {"MDA-kb2 cells": {"tested_on": "MDA-kb2 cells", "experiment": "Cytotoxicity in MDA-kb2", "assay_type": "cell-based", "details": "Cell-Titer Glo, 20 hours"}, "AR": {"tested_on": "AR", "details": "cited from earlier work"}, "AR-LBD": {"biological_target": "T1, AR-LBD (Homo sapiens, UniProt P10275)", "T1 sequence (P10275 663-919)": "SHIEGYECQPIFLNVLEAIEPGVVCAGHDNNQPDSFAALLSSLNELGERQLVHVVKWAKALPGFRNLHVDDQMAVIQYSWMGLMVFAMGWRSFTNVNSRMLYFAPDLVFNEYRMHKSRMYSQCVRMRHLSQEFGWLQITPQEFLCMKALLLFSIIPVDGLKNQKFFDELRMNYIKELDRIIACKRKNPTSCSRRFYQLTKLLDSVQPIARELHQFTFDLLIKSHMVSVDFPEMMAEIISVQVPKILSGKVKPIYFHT", "experiment": "Scintillation Proximity Assay, [3H]-DHT displacement from AR-LBD", "assay_type": "binding", "details": "SPA"}, "[1]": {"experiment": "PAMPA permeability and membrane retention", "details": "0.5% DMSO, pH 7.4"}, "Androgen Receptor (AR)": {"biological_target": "Androgen Receptor (AR) (Homo sapiens, UniProt P10275)", "sequence (P10275 whole entry)": "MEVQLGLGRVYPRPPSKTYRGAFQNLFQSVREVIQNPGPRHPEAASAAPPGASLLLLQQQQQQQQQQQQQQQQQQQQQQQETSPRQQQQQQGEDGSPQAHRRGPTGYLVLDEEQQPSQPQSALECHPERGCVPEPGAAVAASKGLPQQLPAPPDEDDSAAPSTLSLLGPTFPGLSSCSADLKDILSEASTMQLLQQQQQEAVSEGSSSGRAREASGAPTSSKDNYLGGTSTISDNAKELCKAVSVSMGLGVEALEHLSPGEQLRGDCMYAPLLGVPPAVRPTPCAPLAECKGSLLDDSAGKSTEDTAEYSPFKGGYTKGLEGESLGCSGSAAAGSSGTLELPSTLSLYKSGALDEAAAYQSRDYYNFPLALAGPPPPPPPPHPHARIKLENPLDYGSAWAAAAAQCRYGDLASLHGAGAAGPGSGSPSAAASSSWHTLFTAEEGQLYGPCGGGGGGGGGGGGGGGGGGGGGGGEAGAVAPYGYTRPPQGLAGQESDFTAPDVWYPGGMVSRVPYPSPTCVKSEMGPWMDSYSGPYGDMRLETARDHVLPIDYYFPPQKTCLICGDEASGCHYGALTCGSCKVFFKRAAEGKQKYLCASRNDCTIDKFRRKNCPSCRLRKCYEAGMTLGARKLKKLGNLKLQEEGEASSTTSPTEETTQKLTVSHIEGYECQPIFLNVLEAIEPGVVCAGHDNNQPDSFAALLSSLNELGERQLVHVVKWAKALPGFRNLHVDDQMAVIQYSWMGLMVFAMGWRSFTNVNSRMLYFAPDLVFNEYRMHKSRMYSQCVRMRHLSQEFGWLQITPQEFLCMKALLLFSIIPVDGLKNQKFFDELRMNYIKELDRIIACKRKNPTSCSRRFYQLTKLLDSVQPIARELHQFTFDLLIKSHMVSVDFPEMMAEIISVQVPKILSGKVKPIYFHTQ", "experiment": "AR transcription reporter assay", "assay_type": "cell-based", "details": "0.2 nM DHT"}, "FKBP51": {"tested_on": "FKBP51", "experiment": "Real time rt-PCR of FKBP51, 18S and GAPDH in MDA-kb2", "assay_type": "cell-based", "details": "0.2 nM DHT, MDA-kb2, control experiments"}, "in vitro": {"experiment": "in vitro", "details": "PAMPA, pH 7.4"}}}
{"molecule": "CC(O)(CS(=O)(=O)c1ccc(F)cc1)C(=O)Nc1ccc(C#N)c(C(F)(F)F)c1", "note": "(centres unmarked) [Bicalutamide]", "values": [{"measurement": "Cytotoxicity (IC50) in MDA-kb2", "setting": "MDA-kb2 cells", "result": "Non toxic"}]}
{"molecule": "O=C(O)c1ccccc1Nc1cccc(C(F)(F)F)c1", "note": "[Compound 1, flufenamic acid]", "values": [{"measurement": "Block of AR transcription activity", "setting": "AR", "result": "able to block AR transcription activity"}]}
{"molecule": "O=C(O)c1ccccc1Nc1ccc(Cc2ccccc2)cc1", "note": "[Compound 20]", "values": [{"measurement": "Cytotoxicity (IC50) in MDA-kb2", "setting": "MDA-kb2 cells", "result": "Non toxic"}, {"measurement": "Binding to the DHT (hormone) binding site of AR-LBD, in words", "setting": "AR-LBD", "result": "low micromolar range"}, {"measurement": "Permeability", "setting": "[1]", "result": "98 ± 31 10^‒6 cm s^‒1"}, {"measurement": "Retention in membrane", "setting": "[1]", "result": 89, "unit": "%"}, {"measurement": "% inhibition (in brackets), transcriptional inhibition in MDA-kb2", "setting": "Androgen Receptor (AR)", "result": 75, "unit": "%"}]}
{"molecule": "C[C@]12CCC(=O)C[C@@H]1CC[C@@H]1[C@@H]2CC[C@]2(C)[C@@H](O)CC[C@@H]12", "note": "[DHT, dihydrotestosterone]", "values": [{"measurement": "FKBP51 induction", "setting": "FKBP51", "result": "4–5 fold"}]}
{"molecule": "CC(C)(O)C(=O)Nc1ccc([N+](=O)[O-])c(C(F)(F)F)c1", "note": "[Hydroxyflutamide]", "values": [{"measurement": "Cytotoxicity (IC50) in MDA-kb2", "setting": "MDA-kb2 cells", "result": "Non toxic"}, {"measurement": "Retention in membrane", "setting": "[1]", "result": 75, "unit": "%"}, {"measurement": "Papp", "setting": "in vitro", "result": "183 ± 29", "unit": "×10⁻⁶ cm/s"}]}
